Source: patent US9611273B2, “Trioxane thioacetal monomers and dimers and methods of use thereof” (THE JOHNS HOPKINS UNIVERSITY, priority 2012, dated 2017)

Tests used:
[1] = tested on: P. berghei malaria parasites; assay: In vivo antimalarial efficacy, single oral dose of trioxane plus mefloquine hydrochloride in P. berghei-infected mice; settings: for mouse survival post infection: single oral dose 6 mg/kg trioxane plus 18 mg/kg mefloquine, or 18 mg/kg mefloquine alone; for % suppression of parasitemia (on day 3 post infection) / average survival (days) after infection: single oral dose of 6 mg/kg trioxane and 18 mg/kg mefloquine hydrochloride (control: mefloquine-HCl only), P. berghei-infected mice; for average survival (days) after infection: groups of 4
Protocol: Using a standard protocol, see Slack, et al., 2012, 20-gram mice were infected by intraperitonial injection with P. berghei malaria parasites. One day after infection, each mouse in groups of 4 mice received a single oral dose of 6 mg/kg body weight of a trioxane thioacetal combined with 18 mg/kg of the long-lived antimalarial mefloquine hydrochloride. In all cases, parasitemia was decreased by at least 99% on day 3 post infection. Malaria-infected mice receiving no antimalarial drug died on day 6 or 7 post infection. Critically, control groups of mice receiving 6 mg/kg of the popular trioxane drug artemether (2b) plus 18 mg/kg of mefloquine, or just 18 mg/kg of mefloquine alone, survived for about 3 weeks post infection. In contrast, several of the presently disclosed trioxane thioacetals prolonged mouse survival for longer than 3 weeks, and in some instances produced partial cures; for example, 2 of 4 mice in one group (diisopropyl carbamate 3u) appeared healthy and had no detectable parasitemia on day 30 post infection.
The antimalarial efficacy of representative presently disclosed C-10 thioacetals, as well as controls, is summarized in Table 1, which includes the parasitemia levels for mice on day 3 post-infection.

[2] = tested on: P388 leukemia; settings: NCI Report on NSC 369397, tested on 25 Oct. 1983; cited from earlier work
[3] = single oral dose 6 mg/kg plus 18 mg/kg mefloquine hydrochloride

Compound: Cl.OC(c1cc(C(F)(F)F)nc2c(C(F)(F)F)cccc12)C1CCCCN1 (centres unmarked) [mefloquine-HCl only, mefloquine hydrochloride, reference compound]
- mouse survival post infection [1]: about 3 weeks
- % suppression of parasitemia (on day 3 post infection) [1]: >99.9%
- average survival (days) after infection [1]: 14.0 days

Compound: CO[C@H]1O[C@@H]2O[C@@]3(C)CC[C@H]4[C@H](C)CC[C@@H]([C@H]1C)[C@@]24OO3 [artemether, reference compound]
- mouse survival post infection [1]: about 3 weeks

Compound: CSC(=S)OCCCS[C@@H]1O[C@@H]2O[C@]3(C)CC[C@H]4[C@H](C)CC[C@@H]([C@H]1C)[C@@]24OO3 [compound 114, Art-10α-S(CH2)3OC(S)SCH3]
- % suppression of parasitemia (on day 3 post infection) [1]: 99.9%
- average survival (days) after infection [1]: 22.0 days

Compound: C[C@@H]1CC[C@H]2[C@@H](C)C(=O)O[C@@H]3O[C@@]4(C)CC[C@@H]1[C@]32OO4 [artemisinin]
- activity against P388 leukemia [2]: inactive

Compound: C[C@H]1[C@H](SCCCOCn2nnc3ccccc32)O[C@@H]2O[C@]3(C)CC[C@H]4[C@H](C)CC[C@@H]1[C@@]24OO3 [3k, Art-10α-S(CH2)3OCH2—N-benzotriazole]
- antimalarial efficacy in words [1, 3]: most highly efficacious

Compound: C[C@H]1[C@H](SCCCOC(=O)SC(C)(C)C)O[C@@H]2O[C@@]3(C)CC[C@H]4[C@H](C)CC[C@@H]1[C@@]24OO3 [compound 111, Art-10α-S(CH2)3OC(O)StBu]
- % suppression of parasitemia (on day 3 post infection) [1]: 99.9%
- average survival (days) after infection [1]: 29.8 days

Compound: CC(C)N(C(=O)OCCCS[C@@H]1O[C@@H]2O[C@]3(C)CC[C@H]4[C@H](C)CC[C@@H]([C@H]1C)[C@@]24OO3)C(C)C [3u, AMJ-Art-10α-S(CH2)3OC(O)N(iPr)2]
- antimalarial efficacy in words [1, 3]: most highly efficacious
- mice appearing healthy with no detectable parasitemia on day 30 post infection (partial cure) ([1]; single oral dose 6 mg/kg plus 18 mg/kg mefloquine hydrochloride, group of 4 mice): 2 of 4

Compound: CCCSC(=O)OCCCS[C@@H]1O[C@@H]2O[C@@]3(C)CC[C@H]4[C@H](C)CC[C@@H]([C@H]1C)[C@@]24OO3 [compound 110, Art-10α-S(CH2)3OC(O)SnPr]
- % suppression of parasitemia (on day 3 post infection) [1]: >99.9%
- average survival (days) after infection [1]: 19.3 days

Compound: C[C@H]1[C@H](SCCCOCc2ccc(F)cc2)O[C@@H]2O[C@]3(C)CC[C@H]4[C@H](C)CC[C@@H]1[C@@]24OO3 [3h, Art-10α-S(CH2)3OCH2PhF-4]
- antimalarial efficacy in words [1, 3]: most highly efficacious

Compound: CSC(=O)OCCCS[C@@H]1O[C@@H]2O[C@@]3(C)CC[C@H]4[C@H](C)CC[C@@H]([C@H]1C)[C@@]24OO3 [compound 109, Art-10α-S(CH2)3OC(O)SCH3]
- % suppression of parasitemia (on day 3 post infection) [1]: >99.9%
- average survival (days) after infection [1]: 24.5 days
